From publication PMC4457528, “Identification of Novel Small Molecule Inhibitors of Oncogenic RET Kinase” (PLoS ONE, 2015) come the findings set out here.

Read-outs that look alike come from different tables or passages of the source.

Assay in all cases: KinomeScan kinase panel, single concentration 10 µM
What all share (type): binding

In assay [1] the target is T1, KinomeScan kinase panel (Homo sapiens, UniProt P42681).
T1 construct: purchased DiscoveRx (KinomeScan)
T1 sequence (P42681 1-527): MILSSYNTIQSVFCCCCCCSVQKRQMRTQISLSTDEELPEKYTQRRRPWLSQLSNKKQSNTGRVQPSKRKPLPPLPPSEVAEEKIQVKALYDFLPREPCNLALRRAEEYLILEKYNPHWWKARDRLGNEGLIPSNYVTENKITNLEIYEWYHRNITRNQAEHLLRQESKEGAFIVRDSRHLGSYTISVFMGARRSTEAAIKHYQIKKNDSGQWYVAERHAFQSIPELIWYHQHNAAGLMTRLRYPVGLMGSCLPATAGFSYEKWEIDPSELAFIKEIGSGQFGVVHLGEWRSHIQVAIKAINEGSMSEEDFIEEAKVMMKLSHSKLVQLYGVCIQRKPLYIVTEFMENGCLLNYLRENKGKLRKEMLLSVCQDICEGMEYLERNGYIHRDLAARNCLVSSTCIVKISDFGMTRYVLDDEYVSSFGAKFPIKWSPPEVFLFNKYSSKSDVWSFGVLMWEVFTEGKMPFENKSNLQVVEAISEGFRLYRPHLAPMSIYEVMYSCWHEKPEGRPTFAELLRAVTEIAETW
Conditions: kinase TXK; 10 µM; read-out: score (%).

Assay [2] deals with T2, KinomeScan kinase panel (Homo sapiens, UniProt P78356).
T2 construct: purchased DiscoveRx (KinomeScan)
T2 sequence (P78356 1-416): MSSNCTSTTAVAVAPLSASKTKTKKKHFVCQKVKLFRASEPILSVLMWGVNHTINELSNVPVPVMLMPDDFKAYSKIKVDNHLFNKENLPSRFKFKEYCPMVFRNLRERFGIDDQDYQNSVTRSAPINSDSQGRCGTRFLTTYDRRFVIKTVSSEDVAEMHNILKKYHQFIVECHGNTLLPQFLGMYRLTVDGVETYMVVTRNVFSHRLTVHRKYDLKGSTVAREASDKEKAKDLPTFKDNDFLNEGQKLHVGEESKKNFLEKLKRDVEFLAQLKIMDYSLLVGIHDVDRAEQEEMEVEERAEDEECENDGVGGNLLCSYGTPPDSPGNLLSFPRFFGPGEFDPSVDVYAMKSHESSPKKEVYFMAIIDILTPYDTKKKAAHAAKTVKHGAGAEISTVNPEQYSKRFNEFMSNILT
Conditions: PIP5K2B, 10 µM; read-out: score (%).

In assay [3] the target is T3, KinomeScan kinase panel (Homo sapiens, UniProt Q09013).
T3 construct: purchased DiscoveRx (KinomeScan)
T3 sequence (Q09013 1-629): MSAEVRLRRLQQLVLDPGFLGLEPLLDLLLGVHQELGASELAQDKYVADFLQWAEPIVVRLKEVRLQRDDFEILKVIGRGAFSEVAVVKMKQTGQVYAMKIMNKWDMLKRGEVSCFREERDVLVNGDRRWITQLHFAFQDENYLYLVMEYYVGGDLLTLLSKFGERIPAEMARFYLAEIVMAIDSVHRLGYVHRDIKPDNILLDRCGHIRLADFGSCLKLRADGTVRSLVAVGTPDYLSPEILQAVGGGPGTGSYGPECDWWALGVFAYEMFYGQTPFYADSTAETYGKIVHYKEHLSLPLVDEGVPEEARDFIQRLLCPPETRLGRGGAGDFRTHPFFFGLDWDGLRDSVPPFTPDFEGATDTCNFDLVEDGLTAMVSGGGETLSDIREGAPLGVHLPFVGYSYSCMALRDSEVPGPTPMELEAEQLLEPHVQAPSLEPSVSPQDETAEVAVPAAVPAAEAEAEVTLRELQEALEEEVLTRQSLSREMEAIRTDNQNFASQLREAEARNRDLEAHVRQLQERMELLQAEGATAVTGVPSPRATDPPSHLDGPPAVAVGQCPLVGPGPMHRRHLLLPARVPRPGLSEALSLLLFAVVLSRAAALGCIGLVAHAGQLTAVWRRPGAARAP
Conditions: DMPK, 10 µM; read-out: score (%).

For assay [4], the target named is T4, KinomeScan kinase panel (Homo sapiens, UniProt Q7KZI7).
T4 construct: purchased DiscoveRx (KinomeScan)
Particulars: MARK2, 10 µM; read-out: score (%).

For assay [5], the target named is T5, KinomeScan kinase panel (Homo sapiens, UniProt Q9BXA7).
T5 construct: purchased DiscoveRx (KinomeScan)
T5 sequence (Q9BXA7 1-367): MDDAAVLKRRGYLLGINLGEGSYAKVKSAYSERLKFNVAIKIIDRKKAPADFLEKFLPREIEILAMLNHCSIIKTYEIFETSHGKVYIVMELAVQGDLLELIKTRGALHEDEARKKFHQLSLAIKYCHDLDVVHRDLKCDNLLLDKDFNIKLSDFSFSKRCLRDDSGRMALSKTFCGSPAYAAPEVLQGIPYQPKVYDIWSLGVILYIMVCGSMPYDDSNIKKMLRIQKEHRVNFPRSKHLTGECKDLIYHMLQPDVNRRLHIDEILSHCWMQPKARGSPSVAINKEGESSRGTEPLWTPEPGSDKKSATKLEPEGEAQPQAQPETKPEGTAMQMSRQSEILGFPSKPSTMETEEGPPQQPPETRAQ
Particulars: read-out: score (%).

Assay [6] has as its target T6, KinomeScan kinase panel (Homo sapiens, UniProt Q9UKI8).
T6 construct: purchased DiscoveRx (KinomeScan)
T6 sequence (Q9UKI8 1-766): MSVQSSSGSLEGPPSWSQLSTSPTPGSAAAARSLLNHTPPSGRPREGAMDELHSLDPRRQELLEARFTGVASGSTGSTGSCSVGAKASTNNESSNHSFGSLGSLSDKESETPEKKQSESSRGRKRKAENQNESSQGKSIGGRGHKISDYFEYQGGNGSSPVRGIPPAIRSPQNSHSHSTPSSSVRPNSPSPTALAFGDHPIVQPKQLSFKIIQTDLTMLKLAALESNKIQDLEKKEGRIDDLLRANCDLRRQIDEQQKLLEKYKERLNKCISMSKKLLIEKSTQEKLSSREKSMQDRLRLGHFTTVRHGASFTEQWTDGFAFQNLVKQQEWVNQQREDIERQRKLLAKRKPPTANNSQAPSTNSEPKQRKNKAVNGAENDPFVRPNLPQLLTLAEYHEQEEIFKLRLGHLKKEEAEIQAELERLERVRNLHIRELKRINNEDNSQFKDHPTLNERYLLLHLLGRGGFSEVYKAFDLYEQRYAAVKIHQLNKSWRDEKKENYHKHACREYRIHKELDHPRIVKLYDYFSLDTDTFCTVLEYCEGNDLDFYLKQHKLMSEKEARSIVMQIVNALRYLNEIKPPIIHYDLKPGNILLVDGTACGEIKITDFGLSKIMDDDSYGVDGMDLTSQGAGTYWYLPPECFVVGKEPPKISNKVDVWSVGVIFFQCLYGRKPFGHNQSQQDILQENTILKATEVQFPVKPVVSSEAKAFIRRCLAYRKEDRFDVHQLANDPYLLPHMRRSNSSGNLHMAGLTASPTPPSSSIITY
Particulars: read-out: score (%).

T4 sequence (Q7KZI7 whole entry): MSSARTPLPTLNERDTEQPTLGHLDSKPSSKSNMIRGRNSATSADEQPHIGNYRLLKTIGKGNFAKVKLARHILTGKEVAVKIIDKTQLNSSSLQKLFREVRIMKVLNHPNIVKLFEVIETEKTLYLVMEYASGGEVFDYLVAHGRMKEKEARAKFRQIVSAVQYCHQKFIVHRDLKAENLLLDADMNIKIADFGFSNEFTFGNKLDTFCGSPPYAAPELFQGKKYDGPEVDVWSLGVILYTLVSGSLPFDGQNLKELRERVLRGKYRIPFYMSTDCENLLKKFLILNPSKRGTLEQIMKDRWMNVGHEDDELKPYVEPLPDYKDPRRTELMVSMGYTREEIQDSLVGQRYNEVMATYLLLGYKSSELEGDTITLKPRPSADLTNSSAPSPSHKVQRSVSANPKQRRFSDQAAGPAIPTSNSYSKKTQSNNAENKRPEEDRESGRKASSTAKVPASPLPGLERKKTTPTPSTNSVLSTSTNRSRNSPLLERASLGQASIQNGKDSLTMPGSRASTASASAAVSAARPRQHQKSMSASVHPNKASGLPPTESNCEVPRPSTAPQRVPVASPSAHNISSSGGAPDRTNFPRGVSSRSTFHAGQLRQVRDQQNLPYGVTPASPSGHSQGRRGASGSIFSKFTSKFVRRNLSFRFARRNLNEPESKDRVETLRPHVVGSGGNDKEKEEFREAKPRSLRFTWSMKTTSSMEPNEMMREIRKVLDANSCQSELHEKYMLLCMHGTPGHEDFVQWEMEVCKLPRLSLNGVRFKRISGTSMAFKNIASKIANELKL

Turning to `CCN1CCN(Cc2ccc(NC(=O)c3ccc(C)c(NC(=O)c4cncc(-c5cccs5)c4)c3)cc2C(F)(F)F)CC1` [ALW-II-41-27], the remaining binding at 10 µM was 1.8% in assay [1]; greater than 30% in assay [2]; greater than 30% in assay [3]; greater than 30% in assay [4]; greater than 30% in assay [5] (kinase TSSK1B, 10 µM); greater than 30% in assay [6] (kinase TLK1, 10 µM).
As to `CCN1CCN(Cc2ccc(NC(=O)c3ccc(C)c(/C=C/c4cnc5[nH]ccc5c4Cl)c3)cc2C(F)(F)F)CC1` [HG-6-63-01, (E)-3-(2-(4-chloro-1H-pyrrolo[2,3-b]pyridin-5-yl)vinyl)-N-(4-((4-ethylpiperazin-1-yl)methyl)-3-(trifluoromethyl)phenyl)-4-methylbenzamide], the remaining binding at 10 µM in assay [1] is 0.9%; in assay [2] it was 5%; in assay [3] it was greater than 30%; in assay [4], greater than 30%; in assay [5] (TSSK1, 10 µM), greater than 30%; in assay [6] (TLK1, 10 µM), greater than 30%.
For `CCN1CCN(Cc2ccc(NC(=O)c3ccc(C)c(C#Cc4cccnc4)c3)cc2C(F)(F)F)CC1` [XMD15-44], the remaining binding at 10 µM was 0.3% in assay [1]; 58% in assay [2]; greater than 30% in assay [3]; greater than 30% in assay [4]; 92% in assay [5] (kinase TSSK1B, 10 µM); 93% in assay [6] (kinase TLK1, 10 µM).
